Results reported in article PMC3552485 (ACS Chemical Biology, 2012).

Target: T1, TarO (N-acetylglucosamine-1-phosphate transferase) (Staphylococcus aureus, UniProt Q2G060)
T1 sequence (Q2G060 1-351): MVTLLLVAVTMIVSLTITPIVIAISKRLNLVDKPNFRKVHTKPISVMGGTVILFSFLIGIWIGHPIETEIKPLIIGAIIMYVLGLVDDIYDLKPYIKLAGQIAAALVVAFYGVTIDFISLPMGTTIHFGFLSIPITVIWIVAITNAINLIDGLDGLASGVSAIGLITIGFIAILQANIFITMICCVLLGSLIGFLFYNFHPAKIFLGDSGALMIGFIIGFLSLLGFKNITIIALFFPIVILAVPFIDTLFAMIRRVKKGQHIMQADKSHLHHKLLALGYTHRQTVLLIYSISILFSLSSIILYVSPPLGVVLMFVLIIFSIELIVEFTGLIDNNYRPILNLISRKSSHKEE
Format: biochemical

- IC50: 238 ± 14 µM
Compound: Clc1ccccc1CN1CCc2sccc2C1 [ticlopidine]
